Data: patent US9969697B2, “3,4-dihydroquinazoline derivative and combination comprising the same” (UNIVERSITY-INDUSTRY COOPERATION GROUP OF KYUNG HEE …, priority 2014, dated 2018)

How the values were obtained:
[1] = test system: pancreatic cancer cells (PANC-1); test: Cell cycle analysis by PI staining / flow cytometry, with combination index; type: cell-based, human; conditions: PANC-1, 48 hours, Table 3
lung cancer cells (A549) [2] = test: as above; type: cell-based, human; set-up: SubG1: unit not given here; conditions: A549, 48 hours
Procedure: To measure the inviability of cancer cells quantitatively, the cell cycle thereof was analyzed through flow cytometry as follows, in accordance with the method given in the document [See Kim, Y. H. et al., Expression of the murine homologue of the cell cycle control protein […] in T lymphocytes.
After adding ribonuclease (2.5 μg/ml) and propidium iodide (50 μg/ml) together with 500 μl of PBS, the cells were left for 30 minutes in the dark at room temperature, followed by analyzing cell cycle within 1 hour using FACScan flow cytometer (Becton Dickinson Co, Heidelberg, Germany).
(§1) Combination index (CI) mathematically expresses the cytotoxicity on cancer cells or growth inhibition of cancer cells through relative comparison after treating drugs alone or in a combination. The CI is the quantitative concept introduced by Paul Talalay and Ting-Chao Chou and was calculated using CalcuSyn software. The effect of combination treatment according to the values of CI was defined as follows.

[3] = test system: A549 cell line (human lung cancer); test: MTT cytotoxicity assay on cancer cells; type: cell-based; conditions: 48 hours after treatment
Procedure: A549 cell line (human lung cancer) and PANC-1 cell line (human pancreatic cancer) were obtained from Korean Cell Line Bank (KCLB). The cells were cultured in RPMI 1640 medium supplemented with 10% fetal bovine serum (FBS) being heated and inactivated, penicillin (100 units/ml) and streptomycin sulfate (100 units/ml) under the condition of 37° C. and 5% CO2.
In order to confirm the cytotoxicity of drugs, an MTT (3-(4,5-dimethylthiazol-2-yl)-2,5-diphenyltetrazolium bromide) assay was conducted as follows [See Armichael et al., Evaluation of a tetrazolium-based semiautomated colorimetric assay: assessment of chemisensitivity testing. Cancer Research, 47, pp. 944-946, 1987]. The MTT assay is based on the reduction of water-soluble MTT (tetrazolium salt, yellow) which can be absorbed in living cells to its water-insoluble formazan crystals (purple) by activity of oxidoreductase enzymes of mitochondria. That is, when the number of viable cells is more, the formation of formazan crystals increases and the value of absorbance becomes higher.
Each of the cultured cancer cells was inoculated in a 96-well plate (5×10^4 cells/well) and cultured in RPMI medium (100 μl) containing 5% FBS. In 48 hours after the treatment of drugs (200, 100, 50, 25, 12.5, 6.25, 3.125 μM), 20 μl of an MTT solution (5.0 mg/ml) was added to each well, followed by further incubation for 4 hours. The supernatant of the plate was collected, and formazan crystals formed by MTT in the cells were added in 200 μl of DMSO to dissolve the precipitate. The OD value was measured at 540 nm using microplate reader (Molecular Devices).

[4] = target: T1, α1G T-type calcium channel (Homo sapiens, UniProt O43497); test: T-type calcium channel activity, whole-cell patch-clamp in HEK293 cells; type: cell-based; conditions: HEK293 cells expressing α1G T-type calcium channel; read-out: T-type calcium channel blocking effect (IC50: μM)
T1 construct: expressed in transfected cells
Procedure: The culture medium was replaced with a fresh medium every 3 to 4 days, and the cultured cells were subjected to sub-culture every week. […] The cells used for T-type calcium channel activity assay were cultured on a cover slip coated with poly-L-lysine (0.5 mg/mL) whenever sub-cultured, and their calcium channel activity was recorded 2 to 7 days after the cultivation. Current of the T-type calcium channel at a single cell level was measured according to an electrophysiological whole-cell patch-clamp method using EPC-9 amplifier (HEKA, Germany). At this time, a cell exterior solution [NaCl 140 mM, CaCl2 2 mM, and HEPES 10 mM (pH 7.4)] and a cell interior solution [KCl 130 mM, HEPES 10 mM, EGTA 11 mM, and MgATP 5 mM (pH 7.4)] were employed. Inward current caused by the T-type calcium channel activation which occurred when the cells were converted into a whole-cell recording mode by stabbing a microglass electrode having 3-4 MΩ resistance which was filled with the cell interior solution into a single cell and depolarized at −30 mV (50 ms duration period) every 10 s with fixing membrane potential to −100 mV was measured according to a T-type calcium Channel activity protocol activated at low voltage.

lung cancer cells (A549) [5] = test: Annexin V-FITC/PI double staining assay (apoptosis), with combination index; type: cell-based, human; set-up: unit not given here
Procedure: Cell death include the event that phosphatidylserine translocated to the surface of cell membrane is bound to Annexin V-FITC to express fluorochromes. Cells were treated with drugs, harvested, washed with ice-cold PBS twice, and supplied with 100 μl of Annexin V binding buffer ([…] 4-(2-hydroxyethyl)piperazine-1-ethanesulfonic acid (HEPES)/NaOH, 140 mM NaCl, 2.5 mM CaCl2, pH 7.4). Thereto, 5 μl of FITC-conjugated Annexin V and PI (50 μg/ml) were added. The mixture was left for 30 minutes in the dark at room temperature, followed by analysis within 1 hour using FACScan flow cytometer (Becton Dickinson Co, Heidelberg, Germany).
as §1

T1 sequence (O43497 whole entry): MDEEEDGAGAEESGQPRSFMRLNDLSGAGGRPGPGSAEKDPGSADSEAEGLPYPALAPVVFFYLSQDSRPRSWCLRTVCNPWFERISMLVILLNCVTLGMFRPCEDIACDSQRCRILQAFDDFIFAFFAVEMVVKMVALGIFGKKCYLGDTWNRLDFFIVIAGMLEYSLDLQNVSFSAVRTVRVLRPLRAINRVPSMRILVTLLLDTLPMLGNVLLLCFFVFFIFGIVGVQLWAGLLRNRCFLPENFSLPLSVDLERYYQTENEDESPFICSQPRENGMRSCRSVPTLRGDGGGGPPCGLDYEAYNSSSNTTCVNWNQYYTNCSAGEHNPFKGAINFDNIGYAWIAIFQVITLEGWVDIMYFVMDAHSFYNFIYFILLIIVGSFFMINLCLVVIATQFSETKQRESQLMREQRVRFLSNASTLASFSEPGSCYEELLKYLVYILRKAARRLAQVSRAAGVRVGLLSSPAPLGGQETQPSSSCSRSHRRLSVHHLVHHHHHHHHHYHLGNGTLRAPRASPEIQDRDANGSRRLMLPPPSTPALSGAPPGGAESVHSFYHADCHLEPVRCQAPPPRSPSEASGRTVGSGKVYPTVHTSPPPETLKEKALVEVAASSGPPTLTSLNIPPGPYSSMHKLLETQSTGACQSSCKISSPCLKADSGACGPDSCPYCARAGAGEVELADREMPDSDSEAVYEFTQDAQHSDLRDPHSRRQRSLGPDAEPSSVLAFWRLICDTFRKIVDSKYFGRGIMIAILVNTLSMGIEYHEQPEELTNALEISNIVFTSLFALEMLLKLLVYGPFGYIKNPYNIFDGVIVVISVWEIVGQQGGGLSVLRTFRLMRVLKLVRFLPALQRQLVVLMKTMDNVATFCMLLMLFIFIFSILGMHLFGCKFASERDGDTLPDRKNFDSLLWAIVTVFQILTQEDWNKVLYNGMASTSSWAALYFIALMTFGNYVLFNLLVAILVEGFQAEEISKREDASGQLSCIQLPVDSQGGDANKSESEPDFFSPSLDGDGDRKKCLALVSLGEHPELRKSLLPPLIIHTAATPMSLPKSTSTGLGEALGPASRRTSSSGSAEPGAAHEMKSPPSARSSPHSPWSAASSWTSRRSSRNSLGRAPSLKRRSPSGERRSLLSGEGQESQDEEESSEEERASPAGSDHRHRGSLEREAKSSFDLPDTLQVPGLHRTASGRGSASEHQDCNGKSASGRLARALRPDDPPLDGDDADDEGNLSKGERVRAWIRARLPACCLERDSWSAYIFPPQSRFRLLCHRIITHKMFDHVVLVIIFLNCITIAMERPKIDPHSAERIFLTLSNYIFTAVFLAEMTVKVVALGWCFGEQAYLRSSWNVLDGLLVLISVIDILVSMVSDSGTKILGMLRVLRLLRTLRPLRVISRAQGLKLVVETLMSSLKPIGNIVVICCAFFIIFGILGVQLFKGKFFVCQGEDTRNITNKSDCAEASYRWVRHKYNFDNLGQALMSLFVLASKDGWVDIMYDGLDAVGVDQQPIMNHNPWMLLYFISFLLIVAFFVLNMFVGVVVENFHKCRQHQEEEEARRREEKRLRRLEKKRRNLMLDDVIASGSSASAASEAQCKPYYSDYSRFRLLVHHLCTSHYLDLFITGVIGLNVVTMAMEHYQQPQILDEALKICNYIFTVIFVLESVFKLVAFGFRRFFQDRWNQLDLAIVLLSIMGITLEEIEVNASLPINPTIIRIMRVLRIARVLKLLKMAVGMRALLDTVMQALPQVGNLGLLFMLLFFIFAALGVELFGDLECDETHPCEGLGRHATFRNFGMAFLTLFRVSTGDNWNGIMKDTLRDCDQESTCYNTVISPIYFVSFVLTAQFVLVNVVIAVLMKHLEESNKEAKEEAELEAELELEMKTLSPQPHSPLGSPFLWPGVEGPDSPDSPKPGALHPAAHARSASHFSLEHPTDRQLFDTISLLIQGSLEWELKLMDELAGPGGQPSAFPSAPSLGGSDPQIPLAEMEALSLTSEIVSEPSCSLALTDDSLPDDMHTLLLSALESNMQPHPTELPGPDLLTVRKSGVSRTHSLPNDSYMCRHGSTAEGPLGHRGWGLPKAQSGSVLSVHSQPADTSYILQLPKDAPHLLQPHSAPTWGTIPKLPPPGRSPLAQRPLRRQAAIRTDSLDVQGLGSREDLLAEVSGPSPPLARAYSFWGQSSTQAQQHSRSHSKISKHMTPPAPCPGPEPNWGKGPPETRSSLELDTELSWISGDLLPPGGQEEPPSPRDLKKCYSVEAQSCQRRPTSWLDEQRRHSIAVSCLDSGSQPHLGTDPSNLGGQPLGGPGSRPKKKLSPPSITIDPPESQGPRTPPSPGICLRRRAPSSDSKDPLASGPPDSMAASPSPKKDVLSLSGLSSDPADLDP

SMILES: N.N.[Cl][Pt][Cl] [Cisplatin]
- G0/G1 ([1]; 30 μM): 42
- G2/M ([1]; 30 μM): 29.4
- S ([1]; 30 μM): 9.4
- SubG1 ([1]; 30 μM): 9.3
- G0/G1 (lung cancer cells (A549) [2]; 20 μM, Table 2): 9.0
- G2/M (lung cancer cells (A549) [2]; 20 μM, Table 2): 67.5
- S (lung cancer cells (A549) [2]; 20 μM, Table 2): 13.1
- SubG1 (lung cancer cells (A549) [2]; 20 μM, Table 2): 10.5
- G0/G1 (lung cancer cells (A549) [2]; 30 μM, Table 2): 14.0
- G2/M (lung cancer cells (A549) [2]; 30 μM, Table 2): 52.9
- S (lung cancer cells (A549) [2]; 30 μM, Table 2): 15.8
- SubG1 (lung cancer cells (A549) [2]; 30 μM, Table 2): 17.0

SMILES: CN(C)C(=O)NCCCN(C)C1=Nc2ccccc2C(CC(=O)NCc2ccccc2)N1c1ccc(C2CCCCC2)cc1 (stereo not shown) [Compound I-1, 4-(N-benzylacetamido)-3-(4-cyclohexylphenyl)-2-[N—(N′,N′-dimethylureidopropyl)-N-methyl]amino-3,4-dihydroquinazoline]
- IC50 [3]: 12.2 µM
- IC50 [4]: 0.39 ± 0.11 µM

SMILES: CN(C)C(=O)NCCCN(C)C1=Nc2ccccc2C(CC(=O)NCc2ccc(F)cc2)N1c1ccc(C2CCCCC2)cc1 (stereo not shown) [Compound I-2, 4-[N-(4-fluorobenzyl)acetamido]-3-(4-cyclohexylphenyl)-2-[N—(N′,N′-dimethylureidopropyl)-N-methyl]amino-3,4-dihydroquinazoline]
- AV+/PI− (early apoptosis) (lung cancer cells (A549) [5]; A549, 2.5 μM): 2.4
- Total AV+ (sum of early and late apoptosis) (lung cancer cells (A549) [5]; A549, 2.5 μM): 6.08
- AV+/PI− (early apoptosis) (lung cancer cells (A549) [5]; A549, 5 μM): 1.88
- Total AV+ (sum of early and late apoptosis) (lung cancer cells (A549) [5]; A549, 5 μM): 4.78
- AV+/PI− (early apoptosis) (lung cancer cells (A549) [5]; A549, 10 μM): 8.8
- Total AV+ (sum of early and late apoptosis) (lung cancer cells (A549) [5]; A549, 10 μM): 13.14
- IC50 [3]: 7.3 µM
- G0/G1 ([1]; 2.5 μM): 44.7
- G2/M ([1]; 2.5 μM): 35
- S ([1]; 2.5 μM): 7.2
- SubG1 ([1]; 2.5 μM): 2.5
- G0/G1 (lung cancer cells (A549) [2]; 10 μM, Table 2): 79.1
- G2/M (lung cancer cells (A549) [2]; 10 μM, Table 2): 10.9
- S (lung cancer cells (A549) [2]; 10 μM, Table 2): 2.4
- SubG1 (lung cancer cells (A549) [2]; 10 μM, Table 2): 7.6
- G0/G1 (lung cancer cells (A549) [2]; 10 μM, Table 4): 77.4
- G2/M (lung cancer cells (A549) [2]; 10 μM, Table 4): 13.3
- S (lung cancer cells (A549) [2]; 10 μM, Table 4): 5.4
- SubG1 (lung cancer cells (A549) [2]; 10 μM, Table 4): 4.0
- G0/G1 (lung cancer cells (A549) [2]; 10 μM, Table 5): 76.8
- G2/M (lung cancer cells (A549) [2]; 10 μM, Table 5): 12.1
- S (lung cancer cells (A549) [2]; 10 μM, Table 5): 7.6
- SubG1 (lung cancer cells (A549) [2]; 10 μM, Table 5): 3.7
- IC50 [4]: 0.89 ± 0.06 µM

SMILES: COc1ccc(CN(C(C)=O)C2c3ccccc3N=C(N(C)CCCNC(=O)N(C)C)N2c2ccc(C3CCCCC3)cc2)cc1 (stereo not shown) [Compound I-3, 4-[N-(4-methoxybenzyl)acetamido)-3-(4-cyclohexylphenyl)-2-[N—(N′,N′-dimethylureidopropyl)-N-methyl]amino-3,4-dihydroquinazoline]
- G0/G1 (lung cancer cells (A549) [2]; 10 μM, Table 6): 76.8
- G2/M (lung cancer cells (A549) [2]; 10 μM, Table 6): 12.1
- S (lung cancer cells (A549) [2]; 10 μM, Table 6): 7.6
- SubG1 (lung cancer cells (A549) [2]; 10 μM, Table 6): 3.7

SMILES: COc1cccc2c1C(=O)c1c(O)c3c(c(O)c1C2=O)C[C@@](O)(C(=O)CO)C[C@@H]3O[C@H]1C[C@H](N)[C@H](O)[C@H](C)O1 [Doxorubicin]
- G0/G1 (lung cancer cells (A549) [2]; 10 μM, Table 5): 36.7
- G2/M (lung cancer cells (A549) [2]; 10 μM, Table 5): 18.3
- S (lung cancer cells (A549) [2]; 10 μM, Table 5): 11.9
- SubG1 (lung cancer cells (A549) [2]; 10 μM, Table 5): 33.5
- G0/G1 (lung cancer cells (A549) [2]; 10 μM, Table 6): 36.7
- G2/M (lung cancer cells (A549) [2]; 10 μM, Table 6): 18.3
- S (lung cancer cells (A549) [2]; 10 μM, Table 6): 11.9
- SubG1 (lung cancer cells (A549) [2]; 10 μM, Table 6): 33.5

SMILES: COc1cc([C@@H]2c3cc4c(cc3[C@@H](O[C@@H]3O[C@@H]5CO[C@@H](C)O[C@H]5[C@H](O)[C@H]3O)[C@H]3COC(=O)[C@H]23)OCO4)cc(OC)c1O [Etoposide]
- AV+/PI− (early apoptosis) (lung cancer cells (A549) [5]; A549, 50 μM): 19.1
- Total AV+ (sum of early and late apoptosis) (lung cancer cells (A549) [5]; A549, 50 μM): 31.68
- G0/G1 (lung cancer cells (A549) [2]; 50 μM, Table 4): 36.0
- G2/M (lung cancer cells (A549) [2]; 50 μM, Table 4): 18.9
- S (lung cancer cells (A549) [2]; 50 μM, Table 4): 12.3
- SubG1 (lung cancer cells (A549) [2]; 50 μM, Table 4): 33.0

SMILES: COc1cc2ncnc(Nc3ccc(F)c(Cl)c3)c2cc1OCCCN1CCOCC1 [Gefitinib]
- G0/G1 (lung cancer cells (A549) [2]; 40 μM, Table 5): 72.7
- G2/M (lung cancer cells (A549) [2]; 40 μM, Table 5): 11.8
- S (lung cancer cells (A549) [2]; 40 μM, Table 5): 4
- SubG1 (lung cancer cells (A549) [2]; 40 μM, Table 5): 11.6
- G0/G1 (lung cancer cells (A549) [2]; 40 μM, Table 6): 72.7
- G2/M (lung cancer cells (A549) [2]; 40 μM, Table 6): 11.8
- S (lung cancer cells (A549) [2]; 40 μM, Table 6): 4
- SubG1 (lung cancer cells (A549) [2]; 40 μM, Table 6): 11.6

SMILES: Cc1ccc(NC(=O)c2ccc(CN3CCN(C)CC3)cc2)cc1Nc1nccc(-c2cccnc2)n1 [Imatinib]
- G0/G1 (lung cancer cells (A549) [2]; 100 μM, Table 5): 72.4
- G2/M (lung cancer cells (A549) [2]; 100 μM, Table 5): 14.4
- SubG1 (lung cancer cells (A549) [2]; 100 μM, Table 5): 2.9
- G0/G1 (lung cancer cells (A549) [2]; 100 μM, Table 6): 72.4
- G2/M (lung cancer cells (A549) [2]; 100 μM, Table 6): 14.4
- SubG1 (lung cancer cells (A549) [2]; 100 μM, Table 6): 2.9

SMILES: COCC(=O)O[C@]1(CCN(C)CCCc2nc3ccccc3[nH]2)CCc2cc(F)ccc2[C@@H]1C(C)C [Mibefradil]
- IC50 [3]: 24.9 µM

SMILES: C#Cc1cccc(Nc2ncnc3cc(OCCOC)c(OCCOC)cc23)c1 [erlotinib, Erlotinib]
- G0/G1 (lung cancer cells (A549) [2]; 150 μM, Table 5): 70.6
- G2/M (lung cancer cells (A549) [2]; 150 μM, Table 5): 12.9
- S (lung cancer cells (A549) [2]; 150 μM, Table 5): 7.2
- SubG1 (lung cancer cells (A549) [2]; 150 μM, Table 5): 9.6
- G0/G1 (lung cancer cells (A549) [2]; 300 μM, Table 6): 27.7
- G2/M (lung cancer cells (A549) [2]; 300 μM, Table 6): 1.2
- S (lung cancer cells (A549) [2]; 300 μM, Table 6): 1
- SubG1 (lung cancer cells (A549) [2]; 300 μM, Table 6): 70.3
